A word on the EC50: it is the concentration giving half of the maximal effect. What is called IC50 is the concentration that gives 50% inhibition.

These results are taken from PubChem BioAssay AID179 (DTP/NCI, 2004).

Where “and” joins values, the source holds several entries; their conditions need not be identical. Equal entries are not always repeated. Calls of active or inactive are those of the source.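 How the source made its calls: active means compounds giving half or more protection of infected cells from virus-caused growth loss, again on retest; inactive means the rest.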

The test system of the assay is CEM cells HIV-1 protection, formazan growth assay. Description: NCI AIDS Antiviral Assay. As to conditions: for IC50: measured here: growth of uninfected CEM cells. The method in brief:
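Category rules: moderately active means at least 50% protection on retest, and confirmed active means 100% protection reproducibly. The underlying data came from a formazan growth assay in HIV-1-infected CEM cells.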

Take `COc1cc(OCc2nc3cc(C(F)(F)F)ccc3nc2-c2ccccc2)cc(OC)c1OC`: the EC50 is over 200 µM and the IC50 was found to be 89.1 µM. On to `CC1C[C@H](C)CC(C(O)CC2CC(=O)N(Cc3ccccc3)C(=O)C2)C1O` (some centres not stated), for which the EC50 is over 200 µM and the IC50 was over 200 µM.

Turning to `O=[N+]([O-])C(=C1Nc2ccccc2N1)C(Cl)=C(Cl)Cl`, the EC50 is over 200 µM and the IC50 turned out to be 105 µM.

Consider `CCOC(=O)N1CCN(c2nc(C)n(-c3ccccc3)c(=S)c2C#N)CC1`, for which the EC50 is over 200 µM and the IC50 is over 200 µM. In the case of `O=C(NC12CC3CC(CC(C3)C1)C2)C(=O)c1c[nH]c2ccccc12`, the outcome was inactive. In the case of `Cc1ccc(S(=O)(=O)N(CC(=O)O)c2ccccc2)cc1`, the result was inactive. Take `COc1ccc2cc3[n+](cc2c1O)CCc1cc2c(cc1-3)OCO2`: the EC50 is over 347 µM and the IC50 amounted to 6.03 µM.

As for `CCCN(CCC)CC(=O)Nc1cccc(Cl)c1C`, the EC50 is over 200 µM and the IC50 is 63.1 µM.

On to `COC(=O)[C@@H]1c2[nH]c3ccccc3c2C[C@@H]2c3ccccc3NC(=O)[C@@H]21`, for which the EC50 was over 42.7 µM and the IC50 is over 42.7 µM. Consider `Cc1ccc(SSCC(O)C(O)CSSc2ccc(C)cc2)cc1` (configuration not stated), for which the outcome was inactive.

Consider `O=C1c2c(O)cccc2Cc2cc(CO)cc(O)c21`, for which the EC50 was over 200 µM and the IC50 is 0.933 µM.

`CC(C)(C)OC(=O)NC1CCCCC1NC(=O)C(=O)NC1CCCCC1NC(=O)OC(C)(C)C` (configuration not stated): the EC50 is over 100 µM and the IC50 is over 100 µM. With `CC1(C)CN=C(Nc2cccc(C(F)(F)F)c2)S1`, the EC50 is over 200 µM and the IC50 came to 41.7 µM. For `CN(C)c1ccc(/C=N\NC(=O)c2ccccc2Nc2ccccc2C(=O)N/N=C/c2ccc(N(C)C)cc2)cc1`, in that order: 66.1 µM and over 200 µM. For `Cc1ccc(/C=C2/Sc3scc(-c4ccccc4)[n+]3C2=O)cc1`, in that order: over 200 µM and 47.9 µM.

As for `C[N+]1(CCCl)CCc2cccc([N+](=O)[O-])c2C1` (configuration not stated), the EC50 was over 200 µM and the IC50 was determined as 97.7 µM. Take `NC(=O)c1ncn(Cc2ccccc2)c1CNC(N)=S`: the outcome was inactive. With `O=C(CCCCCCCCC(=O)N1C(=O)CC(=O)N(c2ccccc2)C1=S)N1C(=O)CC(=O)N(c2ccccc2)C1=S`, the EC50 is over 200 µM and the IC50 stood at 123 µM. In the same order, the values of `O=C(O)c1cc(C(=CCCBr)c2cc(Cl)c(O)c(C(=O)O)c2)cc(Cl)c1O` are 117 µM and 219 µM.

As to `CN(C)CC1CCCC(CN(C)C)C1OC(=O)c1ccccc1` (configuration not stated), the result was inactive. For `CC(=O)SC1CC(=O)C=C2CCC3C4CCC(=O)OC4(C)CCC3C21C` (configuration not stated), the EC50 is over 200 µM and the IC50 was over 200 µM. As for `COC(=O)[C@H]1COC(=O)N1`, the EC50 was over 200 µM and the IC50 is over 200 µM. For `COC(=O)c1cc(C(=O)c2cc(Br)c(OC)c(C(=O)OC)c2)cc(Br)c1OC`, the EC50 was over 200 µM and the IC50 came out at 67.6 µM. `CCCCCCCCCCCCCCCCCCOCC(CCP(=O)(CP(=O)(O)O)Oc1ccccc1)OCCCCCCCCCCCCCCCCCC` (configuration not stated): the outcome was inactive. Regarding `FC(F)(F)C1(c2ccccc2)SCc2nc3ccccc3n21` (configuration not stated), the EC50 is 77.6 µM and the IC50 was determined as 105 µM.

On to `CO[C@@H]1C=C[C@@]23c4cc5c(cc4C(=O)O[C@H]2CN(C)[C@H]3C1)OCO5`, for which the EC50 was over 380 µM and the IC50 is over 380 µM. In the case of `COc1ccc(C)cc1-c1ccc(-c2cc(C)ccc2OC)o1`, the EC50 was over 72.4 µM and the IC50 was determined as 58.9 µM. As for `Cc1cc(O)oc(=O)c1`, the EC50 was over 2000 µM and the IC50 was over 2000 µM. Regarding `C=CCC(CCC(CC=C)C(=O)O)C(=O)O` (configuration not stated), the EC50 was over 1100 µM and the IC50 is over 1100 µM. As for `COc1ccc2c3c1OC1C4(CCC5C(C2)N(CC2CC2)CCC351)OCCO4` (configuration not stated), the EC50 was over 129 µM and the concentration for half-maximal inhibition (IC50) was over 129 µM. Take `Cn1c2c(c3nc(N)nc(N)c3c1=O)CCc1ccccc1-2`: the EC50 was over 200 µM and the IC50 amounted to 12.9 µM. For `FC(F)(F)c1ccc2c(c1)N(CCCN1CCN(C3CC3)CC1)c1ccccc1S2`, in that order: over 200 µM and 33.1 µM. Regarding `CC12CCC(C(Nc3ccccn3)C1=O)C2(C)C` (configuration not stated), the outcome was inactive. Still for that read-out and setting: to `NCCCN(CCCCN(CCCN)CCCc1ccccc1)CCCc1ccccc1` belongs “inactive”. Take `C=CCCCC[P+](c1ccccc1)(c1ccccc1)c1ccccc1`: the EC50 was over 20 µM and the IC50 was determined as 1.45 µM. For `COC1(OC)C2(Cl)C(Cl)=C(Cl)C1(Cl)C1C2C2CC1(C(=O)O)c1ccccc12` (configuration not stated), the EC50 is over 251 µM and the IC50 stood at 13.5 µM.

`N#CC1(C#N)C2=C(CCCC2)NC(c2ccc(Br)cc2)C1(C#N)C#N` (configuration not stated): the EC50 is over 0.2 µM and the IC50 amounted to 0.0813 µM. In the case of `CCOC(=O)/C=C/CC(C)(C)CCOC(C)=O`, the EC50 was over 200 µM and the IC50 was over 200 µM. With `CC(O[Si](c1ccccc1)(c1ccccc1)C(C)(C)C)[C@H](NC(=O)OC(C)(C)C)C(=O)O` (some centres not stated), the EC50 was over 40.7 µM and the IC50 was over 40.7 µM. Regarding `CSc1nc2nc(C)c(C)nc2c(=O)[nH]1`, the EC50 is over 1120 µM and the IC50 was over 1120 µM. As to `CC(=O)N(O)CCCCCNC(=O)CCC(=O)N(O)CCCCCNC(=O)CCC(=O)N(O)CCCCCN`, the EC50 is over 110 µM; the IC50 is 4.57 µM and 3.63 µM. Regarding `COC(=O)CC1(C)[C@H](O)[C@H]2OC(C)(C)O[C@H]2[C@@H]1O` (some centres not stated), the EC50 is over 955 µM and the IC50 is over 955 µM. For `Cc1sc2ccc3ccccc3c2[n+]1C`, the EC50 was over 200 µM and the IC50 is 45.7 µM. In the same order, the values of `CC1(C)CCSC(/C=C/c2ccccc2)=N1` are over 20 µM and 4.17 µM.

Take `CCC(C)NC(=S)N/N=C(\C)c1ccccn1` (configuration not stated): the EC50 is over 0.2 µM and the concentration for half-maximal inhibition (IC50) was 0.0158 µM. In the same order, the values of `CC(C)CCCC(C)[C@H]1CC[C@@H]2[C@H]3CC[C@H]4C[C@@H](CCC=C(c5cc(Cl)c(OCc6ccc([N+](=O)[O-])cc6)c(C(=O)OCc6ccc([N+](=O)[O-])cc6)c5)c5cc(Cl)c(OCc6ccc([N+](=O)[O-])cc6)c(C(=O)OCc6ccc([N+](=O)[O-])cc6)c5)CC[C@]4(C)[C@@H]3CC[C@]12C` (some centres not stated) are 23.4 µM and 72.4 µM. In the same order, the values of `Cc1cccc(C)c1N1C(=O)C(=O)C(c2nc3ccccc3s2)/C(=N/NC(=O)c2ccccc2O)C1=O` (configuration not stated) are over 251 µM and 6.61 µM.

With `CC(=O)[O][Hg][CH2]C(O)Cn1c(=O)c2c(ncn2C)n(C)c1=O` (configuration not stated), the outcome was inactive.

As to `CC(=O)n1c(COc2ccc3c(C)cc(=O)oc3c2)nc2ccccc2c1=O`, the EC50 is over 91.2 µM and the IC50 is over 91.2 µM. Regarding `CCOC(=O)/C=C1\CCCn2c1ncc(C(=O)OCC)c2=O`, the EC50 is over 200 µM and the IC50 turned out to be 3.63 µM.

Consider `NC(CSS(=O)(=O)O)=NCC1CC2CCC1C2` (configuration not stated), for which the EC50 is over 200 µM and the IC50 was found to be 91.2 µM. Take `O=S(O)Cc1ccccc1CSSSCc1ccccc1CS(=O)O`: the EC50 is over 200 µM and the IC50 was found to be 102 µM.

For `NS(=O)(=O)c1ccc(CNC(=O)c2ccccc2SC(=O)Oc2ccc([N+](=O)[O-])cc2)cc1`, the EC50 stood at 1.17 µM and the IC50 was found to be 36.3 µM.

`O=[N+]([O-])c1ccc2c(c1)c(OCc1ccccc1)nn2Cc1ccccc1`: the EC50 is over 200 µM and the IC50 was determined as 95.5 µM. For `CN(C)N=Nc1ccc2[nH]c(=O)[nH]c2c1`, in that order: over 200 µM and 102 µM. For `COC(=O)C(=O)C(C(=O)OC)C(=O)C(=O)Nc1c(Cl)cc([N+](=O)[O-])cc1Cl` (configuration not stated), in that order: over 23.4 µM and over 23.4 µM.

Consider `C#CCOCn1cnc2ncnc(Cl)c21`, for which the EC50 was over 1120 µM and the IC50 is over 200 µM. In the same order, the values of `O=c1c(Cl)c(Cl)cnn1CCCl` are over 1100 µM and 1.29 µM. For `COc1ccc(C(c2c(O)c3ccccc3oc2=O)N2CCOCC2)c(OC)c1` (configuration not stated), in that order: over 200 µM and 91.2 µM.

Turning to `O=[N+]([O-])c1ccc(C2CC3(c4ccccc4)ON=C(c4ccccc4)N3c3ccccc3S2)cc1` (configuration not stated), the EC50 was over 200 µM and the IC50 is 102 µM. For `COC(=O)[C@H](Cc1ccccc1)NC(=O)N(CCN(CCC#N)C(=O)N[C@H](C(=O)OC)C(C)C)c1ccccc1`, in that order: over 200 µM and 83.2 µM. In the same order, the values of `CN(C)c1ccc(/C=C/C(=O)O)cc1` are over 1150 µM and over 1150 µM. For `COC(=O)C(C)(C)C(OP(=S)(OC)OC)=C(C)C`, in that order: over 200 µM and over 200 µM. As to `O=C(N=Nc1ccc(Cl)cc1Cl)NNc1ccc(Cl)cc1Cl`, the EC50 is over 200 µM and the IC50 amounted to 57.5 µM.

For `Cn1c(=O)cn[nH]c1=O`, the EC50 was over 200 µM and the IC50 is over 200 µM. Regarding `CC(C)C1CC=CCC12C(=O)NC(=O)NC2=O` (configuration not stated), the EC50 is over 1050 µM and the IC50 was 955 µM. Turning to `CC1=CC(=O)c2ccc3c4ccccc4n(C)c3c2C1=O`, the EC50 is over 26.3 µM and the IC50 is over 26.3 µM. Turning to `COC(=O)N1CCc2c(nc(N(C)CCO)[nH]c2=O)C1`, the EC50 is over 891 µM and the IC50 worked out at 708 µM. On to `C=CCN(CC=C)Cn1c(=S)sc2ccccc21`, for which the EC50 is over 200 µM and the IC50 came to 141 µM. Consider `Cc1ccc(S(=O)(=O)n2c3ccc(Br)cc3c3nc4ccccc4nc32)cc1`, for which the EC50 was over 100 µM and the IC50 is over 100 µM. Turning to `CCOP(=O)(C/C=C\Cn1cnc(C(N)=O)c1N)OCC`, the EC50 was over 200 µM and the IC50 is over 200 µM.

Take `CCOCNC(=O)N(COCC)COCC`: the EC50 was over 398 µM and the IC50 was over 398 µM. Turning to `Cc1cn(C(C)OCCO[Si](C)(C)C(C)(C)C)c(=O)[nH]c1=O` (configuration not stated), the EC50 is over 200 µM and the IC50 turned out to be 112 µM.
